One experiment concerns the target T1, 5-HT1A receptor (Homo sapiens, UniProt P08908).
T1 construct: gene HTR1A; full-length human recombinant receptor in CHO-K1 cells (Ogeda); crude membranes
T1 sequence (P08908 1-422): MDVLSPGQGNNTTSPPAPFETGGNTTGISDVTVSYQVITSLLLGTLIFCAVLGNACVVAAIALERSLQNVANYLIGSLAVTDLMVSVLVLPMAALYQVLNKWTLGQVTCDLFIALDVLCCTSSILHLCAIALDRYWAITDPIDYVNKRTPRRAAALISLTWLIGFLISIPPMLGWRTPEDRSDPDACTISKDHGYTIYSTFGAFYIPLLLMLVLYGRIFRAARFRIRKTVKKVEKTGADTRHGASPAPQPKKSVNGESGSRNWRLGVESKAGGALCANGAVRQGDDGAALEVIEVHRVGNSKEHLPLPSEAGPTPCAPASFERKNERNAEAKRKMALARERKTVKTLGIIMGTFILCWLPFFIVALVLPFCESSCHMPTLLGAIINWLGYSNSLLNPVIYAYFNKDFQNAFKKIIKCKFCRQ
Put plainly: radioligand competition, CHO-K1 membranes. The class given is binding. The following applies: read-out: 5-HT1A / pKi (converted). An excerpt:
radioligand competition, CHO-K1 membranes on 5-HT1A receptor
A general note: Displacement assays read how much labelled ligand stays bound in the presence of the test substance.

Experiment [1] has as its target T2, 5-ht1E receptor (Homo sapiens, UniProt P28566).
T2 construct: gene HTR1E; full-length human recombinant receptor in CHO-K1 cells (Ogeda); crude membranes
Put plainly: biochemical. The format is CHO-K1 membranes. More on the design: GTPγS agonist functional assay. To be noted: GTPγS. The source says: (§1) Additionally, the reference values obtained were compared to historical values obtained from the same receptor and used to validate the experimental session. […] For the new assays developed in this study (i.e., 5‐ht1E receptor), the two independent pIC50 determined must be concordant with a 1 log unit interval for the assays to be validated.

The target in experiment [2] is T3, 5-HT1F receptor (Homo sapiens, UniProt P30939).
T3 construct: gene HTR1F; full-length human recombinant receptor in CHO-K1 cells (Ogeda)
T3 sequence (P30939 1-366): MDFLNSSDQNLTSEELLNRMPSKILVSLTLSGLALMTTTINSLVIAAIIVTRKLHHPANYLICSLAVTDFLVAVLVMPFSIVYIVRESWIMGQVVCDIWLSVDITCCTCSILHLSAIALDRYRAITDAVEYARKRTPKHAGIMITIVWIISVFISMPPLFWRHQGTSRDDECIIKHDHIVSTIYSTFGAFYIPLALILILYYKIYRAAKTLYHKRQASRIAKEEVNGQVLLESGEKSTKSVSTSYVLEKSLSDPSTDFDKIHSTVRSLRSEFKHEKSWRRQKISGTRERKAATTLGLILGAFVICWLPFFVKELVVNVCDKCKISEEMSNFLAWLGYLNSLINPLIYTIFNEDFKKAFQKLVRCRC
Put plainly: biochemical. Details: GTPγS agonist functional assay. The class given is CHO-K1 membranes. The following applies: GTPγS.
Source text: as §1

The target of experiment [3] is T3, 5-HT1F receptor. Put plainly: radioligand competition, CHO-K1 membranes. The format is binding. To be noted: read-out: 5-HT1F / pKi (converted).
Experiment [4] addresses T3, 5-HT1F receptor. Put plainly: biochemical. The format is CHO-K1 membranes. More on the design: radioligand competition binding on cell membranes, filtration and TopCount scintillation counting. The following applies: radioligand displacement; for IC50: read-out: 5‐HT1F / pIC50 (converted); for Ki: read-out: 5‐HT1F / pKi (converted). The procedure: Competition binding was performed in duplicate in the wells of a 96‐well plate containing binding buffer (optimized for each receptor), cell membrane extracts (approximately 20,000 cells distributed in the 96‐well plate), radiotracer, and test agonist. Non‐specific binding was determined by co‐incubation with 200‐fold excess of competitor. Cells were incubated and exposed to varying concentrations (1 pM to 10 μM) of a range of displacer agonists (see below). The samples were incubated in a final volume of 0.1 ml and then filtered over Unifilter plates (Perkin Elmer, Massachusetts, USA) pretreated for 2 hr to limit tracer non‐specific binding. Filters were washed five times with 0.5 ml of ice‐cold washing buffer (tris 50 mM pH 7.4) and 50 μl of Microscint 20 (Perkin Elmer) were added to each filter. The plates were incubated 15 min at room temperature on an orbital shaker and then counted with a TopCount™ (Perkin Elmer) for 1 min per well. […] Additionally, the reference values obtained were compared to historical values obtained from the same receptor and used to validate the experimental session. […] For the new assays developed in this study (i.e., 5‐ht1E receptor), the two independent pIC50 determined must be concordant with a 1 log unit interval for the assays to be validated. […]

Experiment [5] concerns the target T4, 5-HT1B receptor (Homo sapiens, UniProt P28222).
T4 construct: gene HTR1B; full-length human recombinant receptor in CHO-K1 cells (Ogeda); crude membranes
Put plainly: radioligand competition, CHO-K1 membranes. The following applies: read-out: 5-HT1B / pKi (converted). The class given is binding. An excerpt: radioligand competition, CHO-K1 membranes on 5-HT1B receptor

The target in experiment [6] is T2, 5-ht1E receptor. Put plainly: radioligand competition, CHO-K1 membranes. The format is binding. The following applies: read-out: 5-ht1E / pKi (converted). An excerpt: radioligand competition, CHO-K1 membranes on 5-ht1E receptor
The target of experiment [7] is T4, 5-HT1B receptor. Put plainly: biochemical. The following applies: radioligand displacement; read-out: 5‐HT1B / pIC50 (converted). The class given is CHO-K1 membranes. Details: radioligand competition binding on cell membranes, filtration and TopCount scintillation counting.
A further experiment concerns the target T5, 5-HT2A receptor (Homo sapiens, UniProt P28223).
T5 construct: gene HTR2A; full-length human recombinant receptor in CHO-K1 cells (Ogeda); crude membranes
Put plainly: radioligand competition, CHO-K1 membranes. The format is binding. The following applies: read-out: 5-HT2A / pKi (converted). The source says:
radioligand competition, CHO-K1 membranes on 5-HT2A receptor

Structures can show the parent of a compound that is named as a salt.

T2 sequence (P28566 whole entry): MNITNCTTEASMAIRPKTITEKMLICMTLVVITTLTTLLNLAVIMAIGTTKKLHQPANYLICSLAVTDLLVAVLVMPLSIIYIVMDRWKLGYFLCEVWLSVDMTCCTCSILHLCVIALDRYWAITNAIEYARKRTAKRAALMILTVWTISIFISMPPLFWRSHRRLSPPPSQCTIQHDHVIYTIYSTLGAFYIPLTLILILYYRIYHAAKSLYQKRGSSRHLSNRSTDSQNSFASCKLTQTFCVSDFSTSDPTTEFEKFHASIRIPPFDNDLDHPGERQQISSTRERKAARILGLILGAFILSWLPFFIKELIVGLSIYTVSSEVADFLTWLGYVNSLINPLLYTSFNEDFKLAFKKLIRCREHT
T5 sequence (P28223 whole entry): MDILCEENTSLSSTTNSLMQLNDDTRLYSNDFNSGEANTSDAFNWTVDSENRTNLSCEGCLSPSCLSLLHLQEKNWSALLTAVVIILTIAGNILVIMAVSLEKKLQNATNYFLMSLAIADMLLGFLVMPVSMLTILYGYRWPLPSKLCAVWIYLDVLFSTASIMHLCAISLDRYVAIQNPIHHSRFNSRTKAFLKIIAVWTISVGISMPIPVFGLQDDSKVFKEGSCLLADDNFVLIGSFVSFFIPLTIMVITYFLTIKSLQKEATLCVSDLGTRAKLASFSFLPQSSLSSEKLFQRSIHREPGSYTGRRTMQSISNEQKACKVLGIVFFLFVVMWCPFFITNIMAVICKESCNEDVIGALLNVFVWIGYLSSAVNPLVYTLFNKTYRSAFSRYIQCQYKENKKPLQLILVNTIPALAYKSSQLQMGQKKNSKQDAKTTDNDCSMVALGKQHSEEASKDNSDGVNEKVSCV
T4 sequence (P28222 whole entry): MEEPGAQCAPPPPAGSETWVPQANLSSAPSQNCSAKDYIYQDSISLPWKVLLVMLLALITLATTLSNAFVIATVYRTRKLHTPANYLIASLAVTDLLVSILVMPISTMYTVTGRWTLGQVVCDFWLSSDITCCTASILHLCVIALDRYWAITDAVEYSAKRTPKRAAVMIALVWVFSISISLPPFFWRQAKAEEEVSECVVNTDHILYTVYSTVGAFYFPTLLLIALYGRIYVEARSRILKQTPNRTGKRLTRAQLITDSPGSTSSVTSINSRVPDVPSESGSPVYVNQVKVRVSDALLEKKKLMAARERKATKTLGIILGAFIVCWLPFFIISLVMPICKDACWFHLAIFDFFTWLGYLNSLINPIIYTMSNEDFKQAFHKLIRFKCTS

As for `CNS(=O)(=O)CCc1ccc2[nH]cc(C3CCN(C)CC3)c2c1` [Naratriptan hydrochloride], the Ki on 5-HT1A receptor was 15.1 nM; on 5-HT1F receptor [3] it was 1.78 nM; on 5-HT1B receptor [5], 0.603 nM; on 5-ht1E receptor [6], 7.41 nM. Besides, the EC50 – broadly, the midpoint of the concentration-response curve – is 6.76 nM on 5-ht1E receptor [1] and 8.91 nM at 5-HT1F receptor [2]. Further, the IC50 at 5-HT1F receptor [4] is 4.68 nM.

Regarding `CNS(=O)(=O)Cc1ccc2[nH]cc(CCCN3CCN(c4ncncc4OC)CC3)c2c1` [Avitriptan fumarate], the Ki at 5-HT1A receptor is 19.5 nM; on 5-HT1F receptor [3], 77.6 nM; at 5-HT1B receptor [5], 1.58 nM; on 5-HT2A receptor it was 2340 nM; on 5-ht1E receptor [6] it was 3550 nM. Besides, the EC50 was above 10000 nM on 5-ht1E receptor [1] and 891 nM on 5-HT1F receptor [2]. Also, the values for the IC50 on 5-HT1F receptor [4] and at 5-HT1B receptor [7] were 204 nM and 4.79 nM, respectively.

As for `CN(C)[C@@H]1CCc2[nH]c3ccc(NC(=O)c4ccc(F)cc4)cc3c2C1` [LY344864 hydrochloride], on 5-HT1F receptor [2], the EC50 is 14.1 nM. Further, on 5-HT1F receptor [4], the IC50 was 4.17 nM and the Ki was 1.58 nM.

Turning to `CN1CCC[C@@H]1Cc1c[nH]c2ccc(CCS(=O)(=O)c3ccccc3)cc12` [Eletriptan hydrobromide], the Ki at 5-HT1A receptor is 1.95 nM; at 5-HT1F receptor [3] it was 17 nM; at 5-HT1B receptor [5] it was 0.525 nM; on 5-HT2A receptor, 1150 nM; at 5-ht1E receptor [6], 61.7 nM. The concentration for a half-maximal effect (EC50) on 5-ht1E receptor [1] was 126 nM; at 5-HT1F receptor [2], 132 nM. Also, the IC50 at 5-HT1F receptor [4] is 44.7 nM; on 5-HT1B receptor [7], 1.58 nM.

For the compound `N#Cc1ccc(N2CCN(C(=O)COc3ccc4[nH]cc(CCN)c4c3)CC2)cc1` [Donitriptan hydrochloride], the Ki is 11.7 nM on 5-HT1A receptor, 0.17 nM on 5-HT1B receptor [5], 447 nM on 5-HT2A receptor and 1700 nM on 5-ht1E receptor [6]. Besides, the EC50 on 5-ht1E receptor [1] is above 10000 nM. For the same compound, the IC50 on 5-HT1B receptor [7] was 0.513 nM.

For `CNC1CCc2[nH]c3ccc(C(N)=O)cc3c2C1` (racemic) [Frovatriptan racemate], on 5-ht1E receptor [1], the half-maximal effective concentration (EC50) was above 10000 nM. A half-maximal effect on 5-HT1F receptor [2] (EC50) was put at 447 nM. For the same compound, at 5-HT1F receptor [4], the IC50 was 316 nM and the Ki was 120 nM.
